Experimental data reported in patent US6238693A, “Transdermal administration of fenoldopam” (priority 1999, dated 2001).
Structures can show the parent of a compound that is named as a salt.

Key:
[1] = tested on: dopamine type-1 receptors; settings: cited from earlier work
[2] = cited from earlier work
[3] = cited from earlier work; remark: listed apart in the source
[4] = tested on: guinea pigs; settings: guinea pig, in vivo
Method: (§1) Dermal sensitization studies in guinea pigs were done to assess the contact sensitization of fenoldopam mesylate and of R-fenoldopam mesylate, the active enantiomer, when administered topically and intradermally. Each of the drugs, the fenoldopam mesylate and the R-fenoldopam mesylate, were administered to the animals from a 50:50 mixture of propylene glycol/water, at drug concentrations of 40 mg/mL, 30 mg/mL, 20 mg/mL, and 10 mg/mL.
As described in Example 2, sixteen animals were divided into 4 groups of 4 animals each. The first group of 4 animals (Group 1) were treated with a topical application of fenoldopam mesylate at the four concentrations. Each animal, after having the hair removed from its back and sides, received each of the concentrations applied at four separate sites. The animals in Group 2 were similarly treated, except with R-fenoldopam. After 24 hours of exposure to the test material, the application site was scored on a four-point scale for dermal reactions (0=no reaction, 1=moderate mild redness, 2=moderate and diffuse redness, 3=intense redness and swelling). […]
For the topical application, the test materials were placed on 2 cm×2 cm pieced of filter paper to saturation and allowed to remain in place on the animal for 24 hours. […] The sites were scored on the following four-point scale for dermal reactions at approximately 24 and 48 hours after patch removal: […]

[5] = tested on: guinea pigs; settings: guinea pig, in vivo; remark: listed apart in the source
Method: as §1
Dermal sensitization was also evaluated following intradermal injection of fenoldopam mesylate and R-fenoldopam at the same concentrations used in the topical screening. As described in Example 2, four animals (Group 3) were treated with […] injections of fenoldopam mesylate at four injection sites, one for each of the four concentrations. Four animals in Group 4 were similarly injected with R-fenoldopam at the four concentrations. 24 hours after injection, the injection sites were scored for dermal reaction on the 4-point scale.
Guinea pigs (strain: CRl (HA)BR) were obtained from Charles River Laboratories. The animals were young adults, weighing between 350-550 g at the start of the study. Each animals was housed individually and fed ad libitum a certified
A stock solution of 50% propylene glycol/50% sterile water mixture was prepared as the control material and for preparation of the test materials.
On each day of testing, a 40 mg/mL fenoldopam mesylate or R-fenoldopam mesylate in 50% propylene glycol/50% sterile water solution was prepared using the stock solution. The 40 mg/mL drug solution was diluted with the stock solution to prepare solutions of 30 mg/mL, 20 mg/mL and 10 mg/mL of both the racemate and the enantiomer. All test materials were used within 8 hours of preparation and were stored at room temperature until administered.
Sixteen guinea pigs were divided into the following groups:
For the intradermal injection, the four animals in Group 3 were treated with intradermal injection of fenoldopam mesylate and the four animals in Group 4 were treated with intradermal injections of R-fenoldopam mesylate. The test materials were administered at concentrations of 40 mg/mL, 30 mg/mL, 20 mg/mL and 10 mg/mL by injecting each at a volume of 0.1 mL into a separate site on the shaved back of the test animal. The areas of intradermal injections were evaluated for dermal irritation on the four-point scale given above at 24 and 48 hours after injection. The test sites were clipped with an electric clipper before the first reading.

[6] = tested on: guinea pigs; assay: Dermal sensitization challenge study (definitive study); format: in vivo, guinea pig; settings: 40 mg/mL challenge
Method: Based on the results from this initial phase of dermal sensitization studies, a definitive challenge dermal sensitivity study was conducted, as described in Example 3. Briefly, thirty animals were divided into three test groups of 10 animals each. The animals in Group 5 were treated with fenoldopam mesylate, the animals in Group 6 with R-fenoldopam mesylate and the animals in Group 7 were treated with vehicles alone as a control.
All animals were initially treated with intradermal injections of the test compound, e.g., fenoldopam mesylate (Group 5) or R-fenoldopam (Group 6), in a 1:1 mixture of propylene glycol:water or in a mixture of Freund's Complete Adjuvent (FCA) in propylene glycol:water. The drug concentration in these vehicle mixtures was 40 mg/mL (see Table 4 in Example 3). The animals were also treated with FCA in water alone. The animals in Group 7 received the same three formulations, except for the absence of fenoldopam.
One week after the intradermal injections, each of the test formulations was applied topically to the injection site. The topical application, in the form of a saturated patch of filter paper, was left in place for 48 hours.
Two weeks after the topical application, the animals in groups 5 and 6 received a challenge dose of 40 mg/mL of the test compound in PG:water, applied topically to a naive site. On the opposing side of the animal, the vehicle alone (PG:water) was applied. The animals in Group 7 received the vehicle alone on both sides. 24 hours after the topical challenge dose, the site was scored for dermal sensitization using the four-point scale given above.
Thirty guinea pigs were obtained and cared for as set forth in Example 2.
On Day 1 of the study, an area approximately 4 cm×6 cm was clipped with an electric clipper along the midline over the shoulder region of each animal in the test and control groups. Two rows of three 0.1 mL intradermal injections were made within the boundaries of a 2 cm×4 cm area, one row on each side of the midline. The injections in each row were as follows: at the anterior site, the animal received 0.1 mL of the prepared Freund's Complete Adjuvent (FCA) solution (Groups 5, 6 and 7); at the medial site, the animals received 0.1 mL of the respective prepared test material (Groups 5 and 6) or vehicle control (Group 7); and at the posterior site, the animals received 0.1 mL of the respective test material (drug in PG:water) further mixed with FCA solution (Groups 5 and 6) or a 1:1 dilution of the PG:water vehicle control in FCA.
On Day 7, the area of intradermal injection on each animal in Groups 5, 6 and 7 was clipped free of hair with an electric clipper. The clipped area was treated with 10% w/w sodium lauryl sulfate in petrolatum. […]

[7] = exposure to the atmosphere during storage; cited from earlier work
[8] = intravenous infusion, therapeutic dosages

**Q.** For Oc1ccc([C@H]2CNCCc3c2cc(O)c(O)c3Cl)cc1 [R-fenoldopam], which “biological activity of enantiomer” value [1] is on record?
**A.** the activity of the drug is due to the R-enantiomer

**Q.** What does the source list for Oc1ccc(C2CNCCc3c2cc(O)c(O)c3Cl)cc1 (stereo not drawn) [fenoldopam, 6-chloro-2,3,4,5-tetrahydro-l-(4-hydroxyphenyl)-1H-3-benzazepine-7,8-diol]?
**A.** blood pressure ([2]; in vivo): decrease in blood pressure; duration of antihypertensive and renal effects ([2]; in vivo): short lasting; renal vasodilation, diuresis and natriuresis ([2]; in vivo): renal vasodilation, diuresis and natriuresis; creatinine clearance, urinary flow and excretion of sodium and potassium [2, 8]: increasing creatinine clearance, urinary flow and excretion of sodium and potassium; glomerular filtration rate [2, 8]: maintaining glomerular filtration rate; renal blood flow [2, 8]: increases renal blood flow; renal vascular resistance [2, 8]: decreases renal vascular resistance; dopamine agonism / peripheral vasodilation ([1]; via stimulation of dopamine type-1 receptors): dopamine agonist that causes peripheral vasodilation; time to achieve dose-dependent steady-state plasma concentration ([3]; intravenous, about 0.01-1.6 μg/kg/min for up to 48 hours): about 20 minutes; first-pass metabolism ([3]; via sulfation and glucuronidation): high first-pass metabolism

**Q.** Which “Dermal Reactions, topical application” value [4] does the source give for Oc1ccc([C@H]2CNCCc3c2cc(O)c(O)c3Cl)cc1 [R-fenoldopam mesylate] here?
**A.** 0

**Q.** What about the “Dermal Reactions, intradermal injection” value [5] of the same compound?
**A.** 2

**Q.** What about the “appearance of injection site (footnote)” value [5] of the same compound?
**A.** Whitish in color

**Q.** What about the “animals scored as having "scattered mild redness"” value [6] of the same compound?
**A.** 5 of the 10 animals

**Q.** What about the “dermal sensitization (summary)” value [6] of the same compound?
**A.** moderate dermal sensitization

**Q.** With Oc1ccc([C@@H]2CNCCc3c2cc(O)c(O)c3Cl)cc1 [S-fenoldopam] as the compound, how does the “biological activity of enantiomer” value [1] read?
**A.** relatively inactive

**Q.** Which “Dermal Reactions, topical application” value [4] does the source give for Oc1ccc(C2CNCCc3c2cc(O)c(O)c3Cl)cc1 (racemic) [fenoldopam mesylate] here?
**A.** 0

**Q.** What about the “Dermal Reactions, intradermal injection” value [5] of the same compound?
**A.** 2

**Q.** What about the “appearance of injection site (footnote)” value [5] of the same compound?
**A.** Whitish in color

**Q.** What about the “animals scored as having "scattered mild redness"” value [6] of the same compound?
**A.** 6 of the 10 animals

**Q.** And the “dermal sensitization (summary)” value [6]?
**A.** moderate dermal sensitization

**Q.** Which results are given for Oc1ccc(C2CNCCc3c2cc(O)c(O)c3Cl)cc1 (racemic) [racemic fenoldopam]?
**A.** average clearance (CL) ([3]; human, in vivo, iv): 2.6 L/min; half-life (t1/2) ([3]; human, in vivo, iv): 4.6 min

**Q.** With Oc1ccc(C2CNCCc3c2cc(O)c(O)c3Cl)cc1 (stereo not shown) [fenoldopam free base] as the compound, how does the oxidation [7] read?
**A.** readily oxidized
